Laboratory results: US20030216334A1, “Methods for inhibiting/treating hiv infections and aids related symptoms” (priority 2003, published 2003)
Values after ≈ are worked out from the molar mass of the structure shown.

Columns and labels:
[1] = Viral cytopathogenicity, tetrazolium-based colorimetric assay, NL4-3
Method: (§1) Effect on Drug-Resistant Mutants. […] Viral cytopathogencity was determined by Serquest Inc., a Division of Southern Research Institute, Gaithersburg Md. using the tetrazolium-based calorimetric assay, and the data were analyzed using a program developed by the Southern Research Institute. A number of viruses were used in these studies, which include some that are resistant to both the NNRTIs and NRTIs.

NL4-3 (wild type) = test: as above; conditions: Human immunodeficiency virus 1, NL43
Method: as §1

4XAZT = test: microbe, parasite or virus in culture; conditions: Human immunodeficiency virus 1
Method: as §1

in vitro = test: in vitro
Method: as §1

HIV IIIB (wild type) = test: Viral cytopathogenicity, tetrazolium-based colorimetric assay, IIIB; type: cell-based
Method: as §1

K103N = test: microbe, parasite or virus in culture; type: cell-based, HIV; conditions: Human immunodeficiency virus 1, virus K103N
Method: as §1

DPS-R (Y181C) = test: microbe, parasite or virus in culture; type: cell-based, HIV; conditions: Human immunodeficiency virus 1
Method: as §1

Y181C = test: microbe, parasite or virus in culture; type: cell-based, HIV; conditions: Human immunodeficiency virus 1
Method: as §1

L100I = test: microbe, parasite or virus in culture; type: cell-based, HIV; conditions: Human immunodeficiency virus 1, virus L100I
Method: as §1

[2] = tested on: HIV-1 attachment and entry into target cells; test: microbe, parasite or virus in culture
Excerpt: (§2) 2) Inhibition of HIV-1 attachment and entry into target cells.

gp120 binding to CD4 = gp120 binding to CD4 (UniProt P01730+P04578); test: gp120/CD4 binding, cell-associated viral p24 antigen read-out
Excerpt: as §2

[3] = tested on: HeLa CD4 LTR β-gal and HL2/3 cells; test: Cell-to-cell fusion assay in the absence of virus
Excerpt: as §2

[4] = Human immunodeficiency virus 1, IIIB

Structure (SMILES) | CC50 [1] [nM] | IC50 (NL4-3 (wild type)) [nM] | IC50 (4XAZT) [nM] | CC50 (in vitro) [nM] | IC50 (HIV IIIB (wild type); [4]) [nM] | IC50 (K103N) [nM] | IC50 (DPS-R (Y181C)) [nM] | IC50 (Y181C) [nM] | IC50 (L100I) [nM] | TC50 ([2]; Attachment) [µg/mL] | IC50 ([2]; Human immunodeficiency virus 1, HeLa) [µg/mL] | TI (gp120 binding to CD4; gp120/CD4 Binding) | CC50 (gp120 binding to CD4; human, HIV-1 infected HeLa CD4 LTR β-gal cells) [µg/mL] | IC50 [3] [µg/mL] | TC50 ([3]; Fusion) [µg/mL] | IC50 (HIV IIIB (wild type); virus IIIB) [nM]
Cc1ccnc2c1NC(=O)c1cccnc1N2C1CC1 [Nevirapine, nevirapine] | 10000 | 60 | 50 | 1000 | 30 | 3200 | ≥ 10000 | 1030 | 150 |  |  |  |  |  |  | 
COc1cc(-c2ccc(/N=N/c3ccc4c(S(=O)(=O)O)cc(S(=O)(=O)O)c(N)c4c3O)c(OC)c2)ccc1/N=N/c1ccc2c(S(=O)(=O)O)cc(S(=O)(=O)O)c(N)c2c1O [CSB, Chicago Sky Blue] |  |  |  |  |  |  |  |  |  | >10 | 1.19 (≈ 1.32 µM) | 8.3 | > 10 | 0.67 (≈ 0.74 µM) | >10 | 
Cc1cn([C@H]2C[C@H](N=[N+]=[N-])[C@@H](CO)O2)c(=O)[nH]c1=O [AZT, zidovudine] | 1000 | 60 | ≥ 1000 |  | 3 |  | 20 | 10 | 3 |  |  |  |  |  |  | 3.2
